The nature of data set [1]: DRUGMATRIX: Phosphodiesterase PDE4 enzyme inhibition (substrate: [3H]cAMP + cAMP). The settings on record: u-937; Not Active = under 50% inhibition at 10 µM.
Data set [2] has as its target T1, C-X-C chemokine receptor type 2 (Homo sapiens, UniProt P25025). Also: in other assays of this panel Not Active means under 50% inhibition at 10 µM.
T1 sequence (P25025 whole entry): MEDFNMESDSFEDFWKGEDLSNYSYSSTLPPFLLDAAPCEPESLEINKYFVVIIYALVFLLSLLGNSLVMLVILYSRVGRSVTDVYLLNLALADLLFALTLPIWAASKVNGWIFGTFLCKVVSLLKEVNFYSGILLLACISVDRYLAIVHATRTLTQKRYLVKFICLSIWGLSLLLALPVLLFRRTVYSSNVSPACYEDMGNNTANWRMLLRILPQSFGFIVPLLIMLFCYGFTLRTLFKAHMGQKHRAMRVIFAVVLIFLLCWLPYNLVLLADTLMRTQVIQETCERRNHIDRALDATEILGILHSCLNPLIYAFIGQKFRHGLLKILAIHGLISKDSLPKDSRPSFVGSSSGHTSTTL
It counts as cell membranes, Membrane. To be noted: cho-k1.

The target of another data set is T2, Interstitial collagenase (Homo sapiens, UniProt P03956).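 Also: MMP-1 enzyme inhibition assay using a peptide substrate; in other assays of this panel Not Active means under 50% inhibition at 10 µM.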
T2 sequence (P03956 whole entry): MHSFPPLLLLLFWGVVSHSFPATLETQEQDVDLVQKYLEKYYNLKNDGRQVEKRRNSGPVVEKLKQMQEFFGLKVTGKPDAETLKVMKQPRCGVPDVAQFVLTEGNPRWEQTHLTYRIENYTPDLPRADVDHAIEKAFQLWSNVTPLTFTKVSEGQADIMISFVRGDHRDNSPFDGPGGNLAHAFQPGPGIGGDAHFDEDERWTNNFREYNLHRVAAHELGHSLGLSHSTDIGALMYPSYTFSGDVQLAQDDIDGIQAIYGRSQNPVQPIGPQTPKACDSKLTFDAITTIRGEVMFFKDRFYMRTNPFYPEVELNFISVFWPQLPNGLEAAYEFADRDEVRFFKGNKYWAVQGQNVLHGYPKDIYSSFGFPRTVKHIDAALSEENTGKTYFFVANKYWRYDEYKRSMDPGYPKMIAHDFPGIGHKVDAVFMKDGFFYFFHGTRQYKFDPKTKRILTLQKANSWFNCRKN
Kind of data set: biochemical. Format: tissue-based, Rheumatoid synovial fibroblasts.

A short description of data set [3]: DRUGMATRIX: Leukotriene, BLT (LTB4) radioligand binding (ligand: [3H]LTB4). Format: cell membranes, Membrane. The settings on record: u-937; Not Active = under 50% inhibition at 10 µM.
Data set [4] addresses T3, Cysteinyl leukotriene receptor 1 (Homo sapiens, UniProt Q9Y271).
T3 sequence (Q9Y271 whole entry): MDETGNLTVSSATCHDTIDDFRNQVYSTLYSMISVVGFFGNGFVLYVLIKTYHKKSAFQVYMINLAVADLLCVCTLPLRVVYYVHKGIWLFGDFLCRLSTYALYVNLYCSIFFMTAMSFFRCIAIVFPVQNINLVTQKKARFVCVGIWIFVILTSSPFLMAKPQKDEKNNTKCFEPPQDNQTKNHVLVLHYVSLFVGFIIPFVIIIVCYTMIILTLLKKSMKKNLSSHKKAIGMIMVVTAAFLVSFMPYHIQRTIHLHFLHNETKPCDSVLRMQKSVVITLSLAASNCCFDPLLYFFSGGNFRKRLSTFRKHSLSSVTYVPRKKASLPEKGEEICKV
It counts as cell membranes, CHO-K1, Membrane. The settings on record: cho-k1.

Data set [5] concerns the target Tyrosine-protein kinase Fyn (Homo sapiens, UniProt P06241). Kind of data set: biochemical. Format: cell-based, Insect cells. The settings on record: for IC50: insect cells.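 As to all read-outs here: enzymatic inhibition of Fyn kinase activity measured with Poly(Glu:Tyr) as the phosphorylation substrate; in other assays of this panel Not Active means under 50% inhibition at 10 µM.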
Another data set concerns the target Cytochrome P450 2C19 (Homo sapiens, UniProt P33261). To be noted: bti-tn-5b1-4. Also: in other assays of this panel Not Active means under 50% inhibition at 10 µM.

pIC50: −log10 of the molar value.

Sequence of Tyrosine-protein kinase Fyn (P06241 whole entry): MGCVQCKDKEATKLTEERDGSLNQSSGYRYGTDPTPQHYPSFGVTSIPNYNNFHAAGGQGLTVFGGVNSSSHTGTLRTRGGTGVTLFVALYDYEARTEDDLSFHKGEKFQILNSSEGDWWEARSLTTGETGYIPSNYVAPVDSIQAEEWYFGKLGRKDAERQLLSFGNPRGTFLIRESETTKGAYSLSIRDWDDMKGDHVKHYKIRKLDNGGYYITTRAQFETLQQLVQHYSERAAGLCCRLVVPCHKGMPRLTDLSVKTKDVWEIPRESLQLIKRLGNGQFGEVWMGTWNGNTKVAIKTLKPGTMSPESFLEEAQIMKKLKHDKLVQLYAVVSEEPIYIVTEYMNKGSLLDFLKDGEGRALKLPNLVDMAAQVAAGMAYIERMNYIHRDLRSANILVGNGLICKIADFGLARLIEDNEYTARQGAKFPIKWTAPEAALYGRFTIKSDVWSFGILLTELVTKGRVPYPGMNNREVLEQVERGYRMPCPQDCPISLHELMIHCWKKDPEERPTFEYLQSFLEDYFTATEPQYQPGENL
Sequence of Cytochrome P450 2C19 (P33261 whole entry): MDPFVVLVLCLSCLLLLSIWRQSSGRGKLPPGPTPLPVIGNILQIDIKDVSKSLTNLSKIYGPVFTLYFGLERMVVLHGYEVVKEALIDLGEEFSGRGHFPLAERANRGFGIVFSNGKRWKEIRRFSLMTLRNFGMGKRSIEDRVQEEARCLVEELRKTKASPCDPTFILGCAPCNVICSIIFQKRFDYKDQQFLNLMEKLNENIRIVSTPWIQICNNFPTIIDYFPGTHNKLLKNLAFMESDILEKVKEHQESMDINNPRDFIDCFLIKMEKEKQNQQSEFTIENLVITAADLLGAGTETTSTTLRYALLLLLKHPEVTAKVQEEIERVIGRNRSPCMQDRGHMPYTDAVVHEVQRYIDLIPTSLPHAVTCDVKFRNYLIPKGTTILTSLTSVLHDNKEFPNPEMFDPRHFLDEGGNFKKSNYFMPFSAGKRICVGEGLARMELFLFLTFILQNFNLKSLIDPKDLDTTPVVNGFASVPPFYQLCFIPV

For the molecule `CC[C@@H](CO)NCCN[C@@H](CC)CO` [ETHAMBUTOL], the IC50 entry (in data set [1]; in data set [2]; at Interstitial collagenase; in data set [3]; in data set [4]; in data set [5]) was “Not Active” throughout. At Cytochrome P450 2C19, the IC50 entry is listed as “Not Active”. Further, the Ki entry (in data set [1]; in data set [3]; on Cytochrome P450 2C19) was “Not Active” each time.

For `CC1(C)O[C@@H]2C[C@H]3[C@@H]4C[C@H](F)C5=CC(=O)C=C[C@]5(C)[C@H]4[C@@H](O)C[C@]3(C)[C@]2(C(=O)CO)O1` [FLUNISOLIDE], the IC50 entry (in data set [1]; in data set [2]; on Interstitial collagenase; in data set [3]; in data set [4]; in data set [5]) was “Not Active” each time. Also, at Cytochrome P450 2C19, the IC50 result was “Not Active”. Moreover, the Ki result (in data set [1]; in data set [3]; at Cytochrome P450 2C19) was “Not Active” each time.

`CC1(C)O[C@@H]2C[C@H]3[C@@H]4C[C@H](F)C5=CC(=O)C=C[C@]5(C)[C@@]4(F)[C@@H](O)C[C@]3(C)[C@]2(C(=O)CO)O1` [FLUOCINOLONE ACETONIDE]: the IC50 entry (in data set [1]; in data set [2]; against Interstitial collagenase; in data set [3]; in data set [4]; in data set [5]) was “Not Active” throughout. The IC50 result on Cytochrome P450 2C19 is listed as “Not Active”. In addition, the Ki result (in data set [1]; in data set [3]; on Cytochrome P450 2C19) was “Not Active” throughout.

As for `CC1(C)O[C@@H]2C[C@H]3[C@@H]4C[C@H](F)C5=CC(=O)CC[C@]5(C)[C@H]4[C@@H](O)C[C@]3(C)[C@]2(C(=O)CO)O1` [FLURANDRENOLIDE], the IC50 result (in data set [1]; in data set [2]; on Interstitial collagenase; in data set [3]; in data set [4]; in data set [5]) was “Not Active” throughout. On Cytochrome P450 2C19, the IC50 result was “Not Active”. Moreover, the Ki entry (in data set [1]; in data set [3]; on Cytochrome P450 2C19) was “Not Active” in each case.

Usually pIC50 stands for −log10 of the IC50, conventionally taken in molar units. Consider `CN(C)c1ccc(C(=C2C=CC(=[N+](C)C)C=C2)c2ccc(N(C)C)cc2)cc1.[Cl-]` [GENTIAN VIOLET], for which the IC50 entry (in data set [1]; in data set [2]; on Interstitial collagenase; in data set [3]; in data set [4]; against Cytochrome P450 2C19) was “Not Active” throughout. In addition, the Ki result (in data set [1]; in data set [3]; at Cytochrome P450 2C19) was “Not Active” in each case. The pIC50 in data set [5] (read-out: IC50) is 5.67.

Turning to `Cc1ccc(S(=O)(=O)NC(=O)NN2CC3CCCC3C2)cc1` (stereo not given) [GLICLAZIDE], the IC50 entry (in data set [1]; in data set [2]; at Interstitial collagenase; in data set [3]; in data set [4]; in data set [5]) was “Not Active” in each case. For the same molecule, the IC50 entry against Cytochrome P450 2C19 was “Not Active”. The Ki result (in data set [1]; in data set [3]; on Cytochrome P450 2C19) was “Not Active” in each case.

Consider `CC(C)Cc1ccc(C(C)C(=O)O)cc1` (stereo not given) [IBUPROFEN], for which the IC50 entry (in data set [1]; in data set [2]; at Interstitial collagenase; in data set [3]; in data set [4]; in data set [5]) was “Not Active” throughout. For the same molecule, the IC50 entry at Cytochrome P450 2C19 was “Not Active”. The Ki result (in data set [1]; in data set [3]; on Cytochrome P450 2C19) was “Not Active” in each case.

`COc1ccc2c(c1)c(CC(=O)O)c(C)n2C(=O)c1ccc(Cl)cc1` [INDOMETHACIN]: the IC50 result (in data set [1]; in data set [2]; on Interstitial collagenase; in data set [3]; in data set [4]; in data set [5]) was “Not Active” throughout. Besides, on Cytochrome P450 2C19, the IC50 entry is “Not Active”. In addition, the Ki entry (in data set [1]; in data set [3]; on Cytochrome P450 2C19) was “Not Active” in each case.

Turning to `CCc1c2c(nc3ccc(OC(=O)N4CCC(N5CCCCC5)CC4)cc13)-c1cc3c(c(=O)n1C2)COC(=O)[C@]3(O)CC` [IRINOTECAN], the IC50 entry (in data set [1]; in data set [2]; in data set [3]; in data set [4]; in data set [5]; at Cytochrome P450 2C19) was “Not Active” throughout. Further, the Ki result (in data set [1]; in data set [3]; on Cytochrome P450 2C19) was “Not Active” throughout. The pIC50 on Interstitial collagenase (read-out: IC50) was 5.22.

Take `CC(C(=O)O)c1cccc(C(=O)c2ccccc2)c1` (stereo not given) [KETOPROFEN]: the IC50 result (in data set [1]; in data set [2]; against Interstitial collagenase; in data set [3]; in data set [4]; in data set [5]) was “Not Active” in each case. For the same molecule, the IC50 result at Cytochrome P450 2C19 is “Not Active”. Also, the Ki result (in data set [1]; in data set [3]; on Cytochrome P450 2C19) was “Not Active” in each case.

On to `Nc1ccn([C@@H]2CS[C@H](CO)O2)c(=O)n1` [LAMIVUDINE], for which the IC50 result (in data set [1]; in data set [2]; at Interstitial collagenase; in data set [3]; in data set [4]; in data set [5]) was “Not Active” in each case. In addition, on Cytochrome P450 2C19, the IC50 entry was “Not Active”. The Ki result (in data set [1]; in data set [3]; on Cytochrome P450 2C19) was “Not Active” each time.

`O=S(=O)([O-])CCS.[Na+]` [MESNA]: the IC50 result (in data set [1]; in data set [2]; against Interstitial collagenase; in data set [3]; in data set [4]; in data set [5]) was “Not Active” each time. Besides, the IC50 result against Cytochrome P450 2C19 was “Not Active”. Moreover, the Ki result (in data set [1]; in data set [3]; on Cytochrome P450 2C19) was “Not Active” each time.

On to `C#C[C@]1(O)CC[C@H]2[C@@H]3CCc4cc(OC)ccc4[C@H]3CC[C@@]21C` [MESTRANOL], for which the IC50 result (in data set [1]; in data set [2]; against Interstitial collagenase; in data set [3]; in data set [4]; in data set [5]) was “Not Active” throughout. For the same molecule, the IC50 entry on Cytochrome P450 2C19 was “Not Active”. The Ki result (in data set [1]; in data set [3]; at Cytochrome P450 2C19) was “Not Active” in each case.

With `CC(=O)Nc1cccc(O)c1` [METACETAMOL], the IC50 entry (in data set [1]; in data set [2]; against Interstitial collagenase; in data set [3]; in data set [4]; in data set [5]) was “Not Active” each time. The IC50 entry against Cytochrome P450 2C19 was “Not Active”. Also, the Ki entry (in data set [1]; in data set [3]; on Cytochrome P450 2C19) was “Not Active” in each case.

In the case of `Cc1ncc([N+](=O)[O-])n1CCO` [METRONIDAZOLE], the IC50 entry (in data set [1]; in data set [2]; against Interstitial collagenase; in data set [3]; in data set [4]; in data set [5]) was “Not Active” each time. The IC50 result at Cytochrome P450 2C19 is “Not Active”. Moreover, the Ki result (in data set [1]; in data set [3]; at Cytochrome P450 2C19) was “Not Active” in each case.

Take `CC(C)(C(=O)c1cccnc1)c1cccnc1` [METYRAPONE]: the IC50 entry (in data set [1]; in data set [2]; against Interstitial collagenase; in data set [3]; in data set [4]; in data set [5]) was “Not Active” throughout. Also, the IC50 entry at Cytochrome P450 2C19 was “Not Active”. The Ki result (in data set [1]; in data set [3]; at Cytochrome P450 2C19) was “Not Active” each time.

The values are drawn from ChEMBL document CHEMBL1909046, “DrugMatrix in vitro pharmacology data”.
